# Experimental data taken from the supplement of paper PMC10307832.
# Legend:
# Assay in all cases: relative viability (nuclei count vs DMSO), 5 days (fraction); higher = more cells survive
# Entinostat + OSI-027 = compound: Nc1ccccc1NC(=O)c1ccc(CNC(=O)OCc2cccnc2)cc1 [Entinostat] + COc1cccc2cc(-c3nc([C@H]4CC[C@H](C(=O)O)CC4)n4ncnc(N)c34)[nH]c12 [OSI-027] (partner 0.5 µM)
# Procedure, shortened: (§1)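 Each reported value is a median over duplicate plates. It expresses relative viability: treated-well nuclei count divided by vehicle-well nuclei count. Lung cancer cell lines in 1536-well plates were dosed by pin tool a day after seeding, alone with one drug or with a fixed anchor-drug dose plus five library-drug doses (not always all listed) in √10 steps, and nuclei were counted after 5 days.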
# Entinostat + Alpelisib = compound: Nc1ccccc1NC(=O)c1ccc(CNC(=O)OCc2cccnc2)cc1 [Entinostat] + Cc1nc(NC(=O)N2CCC[C@H]2C(N)=O)sc1-c1ccnc(C(C)(C)C(F)(F)F)c1 [Alpelisib] (partner 2 µM)
# Procedure, shortened: as §1
# Entinostat + Crizotinib = compound: Nc1ccccc1NC(=O)c1ccc(CNC(=O)OCc2cccnc2)cc1 [Entinostat] + C[C@@H](Oc1cc(-c2cnn(C3CCNCC3)c2)cnc1N)c1c(Cl)ccc(F)c1Cl [Crizotinib] (partner 1 µM)
# Procedure, shortened: as §1
# Entinostat + Foretinib = compound: Nc1ccccc1NC(=O)c1ccc(CNC(=O)OCc2cccnc2)cc1 [Entinostat] + COc1cc2c(Oc3ccc(NC(=O)C4(C(=O)Nc5ccc(F)cc5)CC4)cc3F)ccnc2cc1OCCCN1CCOCC1 [Foretinib] (partner 0.25 µM)
# Procedure, shortened: as §1
Cell Line,relative viability (Entinostat + OSI-027; first compound 0.02 µM),relative viability (Entinostat + OSI-027; first compound 0.06325 µM),relative viability (Entinostat + OSI-027; first compound 0.2 µM),relative viability (Entinostat + OSI-027; first compound 0.6325 µM),relative viability (Entinostat + OSI-027; first compound 2 µM),relative viability (Entinostat + Alpelisib; first compound 0.02 µM),relative viability (Entinostat + Alpelisib; first compound 0.06325 µM),relative viability (Entinostat + Alpelisib; first compound 0.2 µM),relative viability (Entinostat + Alpelisib; first compound 0.6325 µM),relative viability (Entinostat + Alpelisib; first compound 2 µM),relative viability (Entinostat + Crizotinib; first compound 0.02 µM),relative viability (Entinostat + Crizotinib; first compound 0.06325 µM),relative viability (Entinostat + Crizotinib; first compound 0.2 µM),relative viability (Entinostat + Crizotinib; first compound 0.6325 µM),relative viability (Entinostat + Crizotinib; first compound 2 µM),relative viability (Entinostat + Foretinib; first compound 0.02 µM),relative viability (Entinostat + Foretinib; first compound 0.06325 µM),relative viability (Entinostat + Foretinib; first compound 0.2 µM),relative viability (Entinostat + Foretinib; first compound 0.6325 µM),relative viability (Entinostat + Foretinib; first compound 2 µM)
NCI-H522,0.84,0.764,0.85,0.688,0.555,,,,,,,,,,,,,,,
NCI-H1299,,,,,,1.09,1.02,1.06,0.883,0.815,0.904,0.925,0.91,0.767,0.561,1.07,1.07,1.01,0.855,0.879
NCI-H1395,0.716,0.764,0.583,0.647,0.505,1.09,1.22,1.02,0.81,0.522,,,,,,1,1.03,0.994,0.846,0.68
NCI-H1623,0.445,0.565,0.429,0.298,0.339,,,,,,,,,,,0.862,0.84,0.766,0.512,0.375
NCI-H1648,0.247,0.27,0.257,0.271,0.296,,,,,,,,,,,,,,,
NCI-H1650,0.73,0.585,0.589,0.349,0.184,,,,,,0.923,0.928,0.988,0.729,0.359,1.08,1.06,1.11,0.681,0.57
NCI-H1703,,,,,,0.41,0.413,0.522,0.504,0.428,0.674,0.786,0.884,0.415,0.358,0.322,0.346,0.49,0.812,0.688
NCI-H1792,0.752,0.753,0.609,0.569,0.43,0.752,0.673,0.543,0.381,0.223,0.979,1.04,0.86,0.796,0.569,,,,,
NCI-H1793,0.291,0.316,0.285,0.2,0.204,0.584,0.79,0.583,0.621,0.388,,,,,,0.678,0.753,0.782,0.472,0.326
NCI-H2342,0.651,0.587,0.629,0.598,0.524,,,,,,,,,,,1.04,1.22,0.947,0.924,0.787
SW 900,0.696,0.659,0.647,0.319,0.397,,,,,,,,,,,0.946,0.878,1.04,0.674,0.533
